In ChEMBL document CHEMBL3045593, “Synthesis and Fungicidal Activities of 3-(-Alkoxyiminobenzyl)isoxazole Derivatives” (J Pestic Sci, 1999):

Legend:
[1] = test system: Blumeria graminis f. sp. tritici; experiment: Fungicidal activity against Blumeria graminis f. sp. triticii inoculated on wheat seedlings followed by 125 ppm compound application 7 days after fungal inoculation assessed as wheat powdery mildew disease controlling activity relative to untreated control; assay type: functional
[2] = test system: Golovinomyces cichoracearum; experiment: Fungicidal activity against Golovinomyces cichoracearum in cucumber seedlings assessed as cucumber powdery mildew disease controlling activity at 7.8 ppm applied through preventive application relative to untreated control; assay type: functional
[3] = test system: Golovinomyces cichoracearum; experiment: Fungicidal activity against Golovinomyces cichoracearum in cucumber seedlings assessed as cucumber powdery mildew disease controlling activity at 31.3 ppm applied through preventive application relative to untreated control; assay type: functional
[4] = test system: Golovinomyces cichoracearum; experiment: Fungicidal activity against Golovinomyces cichoracearum in cucumber seedlings assessed as cucumber powdery mildew disease controlling activity at 125 ppm applied through preventive application relative to untreated control; assay type: functional
[5] = test system: Blumeria graminis f. sp. tritici; experiment: Fungicidal activity against Blumeria graminis f. sp. triticii inoculated on wheat seedlings followed by 7.8 ppm compound application 7 days after fungal inoculation assessed as wheat powdery mildew disease controlling activity relative to untreated control; assay type: functional
Oculimacula yallundae [6] = experiment: Fungicidal activity against Oculimacula yallundae assessed as inhibition of mycelial growth; assay type: functional, organism-based
[7] = test system: Blumeria graminis f. sp. tritici; experiment: Fungicidal activity against Blumeria graminis f. sp. triticii inoculated on wheat seedlings followed by 400 ppm compound application 7 days after fungal inoculation assessed as wheat powdery mildew disease controlling activity relative to untreated control; assay type: functional
[8] = test system: Blumeria graminis f. sp. tritici; experiment: Fungicidal activity against Blumeria graminis f. sp. triticii inoculated on wheat seedlings followed by 100 ppm compound application 7 days after fungal inoculation assessed as infected leaf area (reference value: 37.8%); assay type: functional
[9] = test system: Blumeria graminis f. sp. tritici; experiment: Fungicidal activity against Blumeria graminis f. sp. triticii inoculated on wheat seedlings followed by 400 ppm compound application 7 days after fungal inoculation assessed as infected leaf area (reference value: 37.8%); assay type: functional
Oculimacula yallundae [10] = experiment: Fungicidal activity against Oculimacula yallundae inoculated oat seeds followed by transfer of inoculated oat seedlings on foot of wheat seedlings followed by 400 ppm compound spraying assessed as degree of wheat eye spot infection (reference value: 82.9 %); assay type: functional
Oculimacula yallundae [11] = experiment: Fungicidal activity against Oculimacula yallundae inoculated oat seeds followed by transfer of inoculated oat seedlings on foot of wheat seedlings followed by 100 ppm compound spraying assessed as degree of wheat eye spot infection (reference value: 82.9 %); assay type: functional
Oculimacula yallundae [12] = experiment: Fungicidal activity against Oculimacula yallundae inoculated oat seeds followed by transfer of inoculated oat seedlings on foot of wheat seedlings followed by 400 ppm compound spraying assessed as wheat eye spot disease control activity relative to untreated control; assay type: functional
[13] = test system: Blumeria graminis f. sp. tritici; experiment: Fungicidal activity against Blumeria graminis f. sp. triticii inoculated on wheat seedlings followed by 100 ppm compound application 7 days after fungal inoculation assessed as wheat powdery mildew disease controlling activity relative to untreated control; assay type: functional
Oculimacula yallundae [14] = experiment: Fungicidal activity against Oculimacula yallundae inoculated oat seeds followed by transfer of inoculated oat seedlings on foot of wheat seedlings followed by 100 ppm compound spraying assessed as wheat eye spot disease control activity relative to untreated control; assay type: functional
[15] = test system: Blumeria graminis f. sp. tritici; experiment: Fungicidal activity against Blumeria graminis f. sp. triticii inoculated on wheat seedlings followed by 500 ppm compound application 7 days after fungal inoculation assessed as wheat powdery mildew disease controlling activity relative to untreated control; assay type: functional
[16] = test system: Golovinomyces cichoracearum; experiment: Fungicidal activity against Golovinomyces cichoracearum in cucumber seedlings assessed as cucumber powdery mildew disease controlling activity at 500 ppm applied through preventive application relative to untreated control; assay type: functional
[17] = test system: Blumeria graminis f. sp. tritici; experiment: Fungicidal activity against Blumeria graminis f. sp. triticii inoculated on wheat seedlings followed by 31.3 ppm compound application 7 days after fungal inoculation assessed as wheat powdery mildew disease controlling activity relative to untreated control; assay type: functional
[18] = test system: Blumeria graminis f. sp. tritici; experiment: Fungicidal activity against Blumeria graminis f. sp. triticii inoculated on wheat seedlings followed by 125 ppm compound application 7 days after fungal inoculation assessed as infected leaf area (reference value: 37.8%); assay type: functional

| SMILES | Activity [1] | Activity [2] | Activity [3] | Activity [15] | also measured |
| --- | --- | --- | --- | --- | --- |
| CON=C(c1ccon1)c1ccccc1COc1ccc(C)cc1C | 90% | 90% | – | – | – |
| CON=C(c1ccon1)c1ccccc1COc1ccccc1F | 90% | – | 90% | – | – |
| CON=C(c1ccon1)c1ccccc1COc1c(C)cccc1C | 90% | – | – | – | Activity [4]: 90% |
| CON=C(c1ccon1)c1ccccc1COc1ccccc1C | – | 90% | – | – | Activity [5]: 90%; EC50 (Oculimacula yallundae [6]): 1.42 ppm |
| CON=C(c1ccon1)c1ccccc1COc1cc(C)ccc1C | – | 90% | – | – | Activity [7]: 86%; Activity [8]: 9.3%; Activity [9]: 5.8%; Activity (Oculimacula yallundae [10]): 19.8%; Activity (Oculimacula yallundae [11]): 36.9%; Activity [5]: 90%; EC50 (Oculimacula yallundae [6]): 1.05 ppm; Activity (Oculimacula yallundae [12]): 76%; Activity [13]: 78%; Activity (Oculimacula yallundae [14]): 56% |
| CON=C(c1ccon1)c1ccccc1COc1cc(Cl)cc(Cl)c1Cl | – | – | – | <90% | Activity [16]: 90% |
| CON=C(c1ccon1)c1ccccc1Oc1ccccc1 | – | – | 90% | 90% | – |
| CON=C(c1ccon1)c1ccccc1COc1cccc(C)c1C | 90% | 90% | – | – | – |
| CON=C(c1ccon1)c1ccccc1COc1c(Cl)cccc1Cl | – | – | 90% | <90% | – |
| CON=C(c1ccon1)c1ccccc1COc1ccc(Cl)cc1 | – | 90% | – | 90% | – |
| CCCON=C(c1ccon1)c1ccccc1COc1cc(C)ccc1C | – | – | – | <90% | Activity [16]: <90% |
| CON=C(c1ccon1)c1ccccc1COc1cc(Cl)ccc1Cl | – | 90% | – | – | Activity [17]: 90% |
| CON=C(c1ccon1)c1ccccc1COc1ccc(C)c(C)c1 | 90% | – | 90% | – | – |
| CON=C(c1ccon1)c1ccccc1COc1cccc(Cl)c1 | – | – | 90% | 90% | – |
| CON=C(c1ccon1)c1ccccc1COc1ccc(Cl)cc1Cl | – | 90% | – | <90% | – |
| CON=C(c1ccon1)c1ccccc1COc1ccc(Cl)cc1C | – | 90% | – | – | Activity [17]: 90% |
| C=CCON=C(c1ccon1)c1ccccc1COc1cc(C)ccc1C | – | – | – | <90% | Activity [16]: <90% |
| Cc1ccc(C)c(OCc2ccccc2C(=NOC(C)C)c2ccon2)c1 | – | – | – | <90% | Activity [16]: <90% |
| CON=C(c1ccon1)c1ccccc1COc1ccccc1C(F)(F)F | – | – | 90% | 90% | – |
| CCc1ccccc1OCc1ccccc1C(=NOC)c1ccon1 | 90% | – | 90% | – | – |

| SMILES | Activity [1] | Activity [2] | Activity [3] | Activity [15] | also measured |
| --- | --- | --- | --- | --- | --- |
| CON=C(c1ccon1)c1ccccc1COc1ccccc1 | – | – | 90% | 90% | – |
| CCCN(CCOc1c(Cl)cc(Cl)cc1Cl)C(=O)n1ccnc1 [PROCHLORAZ] | – | – | – | – | Activity (Oculimacula yallundae [10]): 28.3%; Activity (Oculimacula yallundae [11]): 63.5%; EC50 (Oculimacula yallundae [6]): 0.04 ppm; Activity (Oculimacula yallundae [12]): 66%; Activity (Oculimacula yallundae [14]): 23% |
| CON=C(c1ccon1)c1ccccc1COc1cccc(F)c1 | – | – | – | 90% | Activity [4]: 90% |
| CON=C(c1ccon1)c1ccccc1COc1ccccc1[N+](=O)[O-] | – | – | – | <90% | Activity [16]: <90% |
| CON=C(c1ccon1)c1ccccc1COc1ccccc1OC | – | – | – | <90% | Activity [4]: 90% |
| CON=C(c1ccon1)c1ccccc1COc1cc(F)ccc1F | 90% | – | 90% | – | – |
| CON=C(c1ccon1)c1ccccc1COc1ccc(C)cc1 | 90% | 90% | – | – | – |
| CC(C)(C)C(=O)C(Oc1ccc(Cl)cc1)n1cncn1 (stereo not drawn) [TRIADIMEFON] | 97% | – | – | – | Activity [18]: 1.4% |
| CNC(=O)/C(=N/OC)c1ccccc1COc1cc(C)ccc1C | – | – | – | – | Activity [7]: 63%; Activity [8]: 13%; Activity [9]: 15.5%; Activity (Oculimacula yallundae [10]): 36.7%; Activity (Oculimacula yallundae [11]): 66.5%; EC50 (Oculimacula yallundae [6]): 1.09 ppm; Activity (Oculimacula yallundae [12]): 56%; Activity [13]: 69%; Activity (Oculimacula yallundae [14]): 20% |
| Cc1ccc(C)c(OCc2ccccc2C(=NO)c2ccon2)c1 | – | – | – | <90% | Activity [4]: 90% |
| CON=C(c1ccon1)c1ccccc1COc1cc(C)cc(C)c1C | – | 90% | – | – | Activity [5]: 90%; EC50 (Oculimacula yallundae [6]): 3.9 ppm |
| CON=C(c1ccon1)c1ccccc1OCc1ccccc1 | – | – | – | – | Activity [4]: 90% |
| CON=C(c1ccon1)c1ccccc1COc1ccc(F)cc1 | – | – | 90% | 90% | – |
| CCON=C(c1ccon1)c1ccccc1COc1cc(C)ccc1C | – | – | – | <90% | Activity [16]: <90% |
| CON=C(c1ccon1)c1ccccc1COc1ccccc1Br | 90% | 90% | – | – | – |
| CON=C(c1ccon1)c1ccccc1COc1ccccc1Cl | 90% | 90% | – | – | – |
| CON=C(c1ccon1)c1ccccc1COc1ccc(F)cc1F | 90% | 90% | – | – | – |
| CON=C(c1ccon1)c1ccccc1COc1ccc(Cl)c(Cl)c1 | 90% | – | 90% | – | – |
| CON=C(c1ccon1)c1ccccc1COc1cccc(C)c1 | 90% | – | 90% | – | – |
